Measurements: PubChem BioAssay (NCI)
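Growth conditions: 96-well plates. Treatment: test compound, 48 hours, 5 concentrations. Analysis: linear interpolation between bracketing concentrations; unreached endpoints set to highest concentration. At the GI50, growth is halved. The concentration for full growth arrest is given as TGI.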

What was measured:
Test in all cases: NCI tumour cell line growth inhibition, 48 h
LXFL 529 NSCLC = system: LXFL 529 NSCLC
M19-MEL melanoma = system: M19-MEL melanoma
RXF-631 renal = system: RXF-631 renal
SNB-78 CNS = system: SNB-78 CNS
XF 498 CNS = system: XF 498 CNS
HOP-18 NSCLC = system: HOP-18 NSCLC
KM20L2 colon = system: KM20L2 colon
MDA-N = system: MDA-N
P388 leukemia = system: P388 leukemia
P388/ADR leukemia = system: P388/ADR leukemia
SN12K1 renal = system: SN12K1 renal

SMILES | TGI (LXFL 529 NSCLC) [µM] | TGI (M19-MEL melanoma) [µM] | TGI (RXF-631 renal) [µM] | TGI (SNB-78 CNS) [µM] | TGI (XF 498 CNS) [µM] | TGI (HOP-18 NSCLC) [µM] | TGI (KM20L2 colon) [µM] | further results
COC(=O)C1(C)CCc2c(OC)ccc(OC)c2C1=O (centres undefined) | > 100 | > 100 | > 100 | > 100 | > 100 | – | – | –
COc1cc2c(c(OC)c1OC)-c1ccc(SC)c(=O)cc1C(NC(=O)c1ccccc1)CC2 (centres undefined) | > 76.5 | > 100 | – | > 90.9 | – | > 100 | < 0.01 | –
Cc1ccc(-c2nnc(-c3nn(-c4ccccc4)c4nc5ccccc5nc34)o2)cc1 | 35.7 | > 100 | – | > 100 | 25.4 | 65.2 | > 100 | –
Nc1nc(OCc2ccccc2)c2[nH]cnc2n1 | 400 | 400 | 309 | 400 | – | 335 | 400 | –
CCOC(=O)C1C(=S)NC(=O)C1C#N (centres undefined) | > 100 | > 100 | > 100 | – | – | > 100 | > 100 | –
CC(=O)Nc1ccc(SC#N)c2c(NC(C)=O)cccc12 | > 73 | > 100 | > 100 | > 100 | – | > 100 | > 100 | –
O=C1CC(c2c[nH]c3ccccc23)C(=O)N1 (centres undefined) | > 100 | > 100 | > 100 | > 100 | > 100 | – | > 100 | –
Clc1ccc(Nc2nc3ccccc3nc2-c2cccs2)cc1Cl | > 100 | > 100 | > 100 | > 100 | > 100 | > 100 | > 100 | –
O=C(O)c1ccc(C(=O)c2ccccc2)c(C(=O)O)c1 | – | – | – | – | – | – | – | TGI (MDA-N): > 100 µM
Cc1c(/C=N/N=C/c2[nH]c(C(=O)OC(C)(C)C)c(C)c2C)[nH]c(C(=O)OC(C)(C)C)c1C | > 100 | > 100 | – | > 100 | – | > 100 | > 100 | –
O=C1OC(Cc2ccccc2)(N2CCCC2=O)C1c1ccccc1 (centres undefined) | > 100 | > 100 | – | > 100 | 88.5 | – | > 100 | –
O=C(NC1CCCCC1)NS(=O)(=O)c1ccc2c(c1)CCC2 | – | > 100 | > 100 | – | > 100 | > 100 | – | –
O=[N+]([O-])c1ccc(C=Cc2ccccc2)cc1.[C-]#[O+].[C-]#[O+].[C-]#[O+].[Cr] | – | – | – | – | – | – | – | GI50 (MDA-N): 7.25 µM; TGI (MDA-N): > 100 µM
Cc1[nH]c2ccccc2c1C(=O)CC1(O)C(=O)Nc2c(Cl)cc(Cl)cc21 (centres undefined) | 30.8 | 24.6 | > 100 | > 100 | 32.8 | 85.6 | – | –
Cc1ccc(/C=C/C(=O)C(C)(C)CN2CCCCC2)cc1 | 19.4 | 31.1 | 32.1 | 29.7 | 25.3 | – | 10.7 | –
CC#CCC1CCC(OCC)=CC1=O (centres undefined) | > 100 | > 100 | > 100 | > 100 | > 100 | > 100 | > 100 | –
CCC(=O)C12OC3OC(C)(C)OC3C1OC(C)(C)O2 (centres undefined) | – | > 100 | > 100 | > 100 | > 100 | – | – | –
N#CC(C#N)=C1NC(=O)CC(=O)N1 | > 100 | > 100 | – | > 100 | > 100 | – | > 100 | –
Fc1ccc(C2SCc3nc4ccccc4n32)c(F)c1 (centres undefined) | – | > 100 | > 100 | > 100 | – | > 100 | > 100 | –

SMILES | TGI (LXFL 529 NSCLC) [µM] | TGI (M19-MEL melanoma) [µM] | TGI (RXF-631 renal) [µM] | TGI (SNB-78 CNS) [µM] | TGI (XF 498 CNS) [µM] | TGI (HOP-18 NSCLC) [µM] | TGI (KM20L2 colon) [µM] | further results
NC(=O)c1csc(C2OC(CO)C(O)C2O)n1 (centres undefined) | – | > 5520 | – | > 9480 | 732 | > 3980 | > 9200 | GI50 (MDA-N): 59.5 µM; TGI (MDA-N): > 6490 µM; TGI (P388 leukemia): 159 µM; TGI (P388/ADR leukemia): 84.1 µM; TGI (SN12K1 renal): > 9220 µM
CCCP1(=O)C=C(C)C(=C(Cl)Cl)C(C)=C1 (centres undefined) | > 100 | > 100 | – | > 100 | – | > 100 | 47.1 | –
CC1(O)C=CC(=O)C=C1 | 26.4 | 58.6 | – | 97.2 | > 65.1 | > 100 | > 100 | –
NC(CSC1c2ccccc2-c2ccccc21)C(=O)O (centres undefined) | – | – | – | – | – | – | – | TGI (MDA-N): > 100 µM
N#CC(=C1C=CC(=NO)C=C1)c1ccc(Cl)cc1 | 18 | 46.9 | – | – | – | > 100 | > 100 | –
COc1ccc(-c2cc(Cc3cccs3)c(=O)[nH]n2)cc1 | > 100 | > 100 | – | > 100 | – | – | > 100 | –
OCC12C3C4C5C3C1C5C42 (centres undefined) | – | – | – | – | – | – | – | TGI (MDA-N): > 100 µM
O=C1OC(=O)C(=C\c2ccc3c(c2)OCO3)/C1=C/c1ccc2c(c1)OCO2 | – | – | – | – | – | – | – | TGI (MDA-N): > 100 µM
COc1cc(C(=O)C/C(CCC(=O)Nc2ccccc2[N+](=O)[O-])=N\NC(N)=O)ccc1O | – | > 100 | > 100 | > 100 | > 100 | > 100 | > 100 | –
O=C(O)CN1CCN(CC(=O)O)CC(=O)[O][Hg][O]C(=O)C1 | – | – | – | – | – | – | – | GI50 (MDA-N): 16.7 µM; TGI (MDA-N): 31.7 µM
CS(=O)(=O)c1ccc(-c2cc(-c3ccc(S(C)(=O)=O)cc3)[n+](-c3cc(-c4ccc(S(C)(=O)=O)cc4)c([O-])c(-c4ccc(S(C)(=O)=O)cc4)c3)c(-c3ccc(S(C)(=O)=O)cc3)c2)cc1 | > 100 | > 100 | > 100 | > 100 | – | > 100 | > 100 | –
COc1ccc(C=O)c([N+](=O)[O-])c1 | – | > 100 | > 100 | > 100 | > 100 | > 100 | 45.2 | –
O=C1c2ccccc2-c2cc([N+](=O)[O-])c([N+](=O)[O-])cc21 | – | – | – | – | – | – | – | TGI (MDA-N): 5.18 µM
CN(N=O)C(=O)ON1C(=O)CCC1=O | > 100 | > 100 | – | > 100 | – | > 100 | > 100 | –
NNC(=O)CS(=O)(=O)Nc1ncccn1 | – | – | – | – | – | – | – | TGI (MDA-N): > 100 µM
C#C[C@]1(O)CCCC2=CC(=O)CC[C@@]21C | > 100 | > 100 | – | – | – | > 100 | > 100 | –
O=C1C(=C([O-])c2ccccc2)C(=O)c2ccccc21.O=C1C(=C([O-])c2ccccc2)C(=O)c2ccccc21.[Fe+2] | – | > 100 | – | – | – | > 100 | – | GI50 (HOP-18 NSCLC): > 100 µM; GI50 (M19-MEL melanoma): > 100 µM
CCN(CC)CC1c2ccccc2C(CNc2ccccc2)N1C (centres undefined) | > 100 | > 100 | > 100 | > 100 | > 100 | – | > 100 | –
O=C(/C=C/c1ccccc1)CCN1CCOCC1 | 8.43 | 28.3 | – | 47.3 | 29.1 | 32.2 | 31.2 | TGI (MDA-N): 30.1 µM; TGI (P388 leukemia): > 27.2 µM; TGI (P388/ADR leukemia): 7.76 µM; TGI (SN12K1 renal): 31 µM
